# Patent publication US20060052600A1, “Amino-functional chalcones” (priority 2002, published 2006)
# Legend:
# [1] = Determination of solubility; type: physicochemical; conditions: 0.3 M phosphate buffer, 24 hours
# Description: Solubility of the compounds was determined by preparing a saturated solution of compound in 0.3 M phosphate buffer (pH 7.4±0.3) in a brown glass tube. The suspensions were rotated slowly for 24 hours. Aliquots were centrifuged for 10 minutes at 14.000 rpm and supernatants were diluted in 40% (v/v) acetonitrile in water prior to HPLC analysis. Concentrations of analytes were quantified against a standard curve and used as term of solubility.
# The HPLC-UV method used for the assessment of solubility is the same as used in the in vitro metabolism assay.
# [2] = Determination of metabolic stability (liver microsomes); type: in vitro ADME, rat; conditions: for Metabolic turn-over (rat) in vitro: 20 μM, 15 min, 37° C.
# Description: Samples were incubated for 15 min at 37° C. and the reactions were terminated by addition of equal volumes of acetonitrile. Blank incubations were performed at the same concentration but without addition of microsomes. Both blank and microsome-containing samples were made in […] of three. […] The fraction of compound metabolised during the 15 min of incubation was determined by comparison of blank and microsome-containing samples using a Waters Alliance 2690 separation module and Waters 996 PDA-detector (Waters. […] This was followed by a 5 minutes linear gradient to initial conditions, which were maintained for 5 min. The flow rate was 0.20 ml/min and injection volume 10 μl.
# [3] = test system: panel of anaerobic bacteria (Bacteroides fragilis, Clostridium perfringens, Clostridium difficele); type: cell-based; conditions: single concentration 100 μM
# [4] = test system: DHODH (dihydroorotate dehydrogenase); assay: DHODH assay; type: biochemical; conditions: test concentration not given
# [5] = test system: Staphylococcus aureus ATCC29213; assay: MIC determination in broth microdilution assay
# [6] = test system: Staphylococcus aureus ATCC33591 (resistant to methicillin); assay: MIC determination in broth microdilution assay
# [7] = test system: Staphylococcus intermedius #2357 (clinical isolate); assay: MIC determination in broth microdilution assay
# [8] = test system: Enterococcus faecalis ATCC29212; assay: MIC determination in broth microdilution assay
# [9] = test system: Enterococcus faecium #17501 (vancomycin-resistant clinical isolate); assay: MIC determination in broth microdilution assay
# [10] = test system: Streptococcus pneumoniae #998 (clinical isolate); assay: MIC determination in broth microdilution assay
# Eschericia coli ESS = assay: MIC determination in broth microdilution assay
# [11] = test system: panel of non-fastidious bacteria (Gram-positive pathogens and Eschericia coli); assay: Activity against non-fastidious bacteria (panel, results in words); conditions: Gram-positive pathogens
smiles,measurement,setting,value
"COc1ccc(C(=O)/C=C/c2ccc(CNCCN(C)C)cc2)cc1 [A005, (E)-3-{4-[(2-Dimethylamino-ethylamino)-methyl]-phenyl}-1-(4-methoxy-phenyl)-propenone]",Solubility in aqueous buffer at pH 7.4,[1],>6 mg/ml
"COc1ccc(C(=O)/C=C/c2cccc(CNCCN(C)C)c2)cc1 [A010, (E)-3-{3-[(2-Dimethylamino-ethylamino)-methyl]-phenyl}-1-(4-methoxy-phenyl)-propenone]",Metabolic turn-over (rat) in vitro,[2],1%
same,Solubility in aqueous buffer at pH 7.4,[1],33.4 mg/ml
"CN(C)Cc1ccc(C(=O)/C=C/c2ccc(Cl)cc2Cl)cc1 [A011, (E)-3-(2,4-Dichloro-phenyl)-1-(4-dimethylaminomethyl-phenyl)-propenone]",activity against anaerobic bacteria,[3],activity against all microorganisms within the test panel
"COc1ccc(C(=O)/C=C/c2cccc(CN3CCN(C)CC3)c2)cc1 [A013, (E)-1-(4-Methoxy-phenyl)-3-[3-(4-methyl-piperazin-1-ylmethyl)-phenyl]-propenone]",Solubility in aqueous buffer at pH 7.4,[1],31.2 mg/ml
"CN(C)Cc1cccc(C(=O)/C=C/c2ccc(Cl)cc2Cl)c1 [A020, (E)-3-(2,4-Dichloro-phenyl)-1-(3-dimethylaminomethyl-phenyl)-propenone]",Inhibition of DHODH,[4],23%
"CN1CCN(Cc2cccc(C(=O)/C=C/c3ccc(Cl)cc3Cl)c2)CC1 [A021, (E)-3-(2,4-Dichloro-phenyl)-1-[3-(4-methyl-piperazin-1-ylmethyl)-phenyl]-propenone]",Inhibition of DHODH,[4],27%
"CCCCN(CCCC)c1ccc(/C=C/C(=O)c2ccc(CN3CCN(C)CC3)cc2)cc1 [A025, (E)-3-(4Dibutylamino-phenyl)-1-[4-(4-methyl-piperazin-1-ylmethyl)-phenyl]-propenone]",Inhibition of DHODH,[4],26%
same,"MIC, A: Staphylococcus aureus ATCC29213",[5],9.4 µM
same,"MIC, B: Staphylococcus aureus ATCC33591",[6],9.4 µM
same,"MIC, C: Staphylococcus intermedius #2357",[7],9.4 µM
same,"MIC, D: Enterococcus faecalis ATCC29212",[8],9.4 µM
same,"MIC, E: Enterococcus faecium #17501",[9],9.4 µM
same,"MIC, F: Streptococcus pneumoniae #998",[10],37.5 µM
same,"MIC, H: Eschericia coli ESS",Eschericia coli ESS,75.0 µM
same,potency against Gram-positive pathogens in comparison with Licochalcone A,[11],increased potency
"CN1CCN(Cc2ccccc2C(=O)/C=C/c2ccc(Cl)cc2Cl)CC1 [A026, (E)-3-(2,4-Dichloro-phenyl)-1-[2-(4-methyl-piperazin-1-ylmethyl)-phenyl]-propenone]",activity against anaerobic bacteria,[3],activity against all microorganisms within the test panel
"COc1ccc(OC)c(/C=C/C(=O)c2ccccc2CN(C)C)c1 [A029, (E)-3-(2,5-Dimethoxy-phenyl)-1-(2-dimethylaminomethyl-phenyl)-propenone]",Metabolic turn-over (rat) in vitro,[2],3%
"CCCCN(CCCC)c1ccc(/C=C/C(=O)c2ccccc2CN(C)C)cc1 [A030, (E)-3-(4-Dibutylamino-phenyl)-1-(2-dimethylaminomethyl-phenyl)-propenone]","MIC, A: Staphylococcus aureus ATCC29213",[5],9.4 µM
same,"MIC, B: Staphylococcus aureus ATCC33591",[6],9.4 µM
same,"MIC, C: Staphylococcus intermedius #2357",[7],9.4 µM
same,"MIC, D: Enterococcus faecalis ATCC29212",[8],18.8 µM
same,"MIC, E: Enterococcus faecium #17501",[9],18.8 µM
same,"MIC, F: Streptococcus pneumoniae #998",[10],18.8 µM
same,"MIC, H: Eschericia coli ESS",Eschericia coli ESS,18.8 µM
same,activity against the ESS strain of E. coli,Eschericia coli ESS,considerable activity
same,potency against Gram-positive pathogens in comparison with Licochalcone A,[11],increased potency
"CCCCN(CCCC)c1ccc(/C=C/C(=O)c2ccc(CN(C)C)cc2)cc1 [A033, (E)-3-(4-Dibutylamino-phenyl)-1-(4-dimethylaminomethyl-phenyl)-propenone]","MIC, A: Staphylococcus aureus ATCC29213",[5],4.7 µM
same,"MIC, B: Staphylococcus aureus ATCC33591",[6],9.4 µM
same,"MIC, C: Staphylococcus intermedius #2357",[7],4.7 µM
same,"MIC, D: Enterococcus faecalis ATCC29212",[8],9.4 µM
same,"MIC, E: Enterococcus faecium #17501",[9],9.4 µM
same,"MIC, F: Streptococcus pneumoniae #998",[10],75.0 µM
same,"MIC, H: Eschericia coli ESS",Eschericia coli ESS,150.0 µM
same,potency against Gram-positive pathogens in comparison with Licochalcone A,[11],increased potency
"O=C(/C=C/c1ccc(Cl)cc1Cl)c1ccccc1CN1CCOCC1 [A037, (E)-3-(2,4-Dichloro-phenyl)-1-(2-morpholin-4-ylmethyl-phenyl)-propenone]",activity against anaerobic bacteria,[3],activity against all microorganisms within the test panel
"CCN(CC)Cc1ccccc1C(=O)/C=C/c1ccc(Cl)cc1Cl [A045, (E)-3-(2,4-Dichloro-phenyl)-1-(2-diethylaminomethyl-phenyl)-propenone]",Inhibition of DHODH,[4],20%
"COc1ccc(OC)c(/C=C/C(=O)c2ccccc2CN2CCNCC2)c1 [A049, (E)-3-(2,5-Dimethoxy-phenyl)-1-(2-piperazin-1-ylmethyl-phenyl)-propenone]",Metabolic turn-over (rat) in vitro,[2],0%
same,Solubility in aqueous buffer at pH 7.4,[1],6.3 mg/ml
"COc1ccc(C(=O)/C=C/c2cccc(CN(C)CCN(C)C)c2)cc1 [A069, (E)-3-(3-{[(2-Dimethylamino-ethyl)-methyl-amino]-methyl}-phenyl)-1-(4-methoxy-phenyl)-propenone]",Solubility in aqueous buffer at pH 7.4,[1],>10 mg/ml
"C=CC(C)(C)c1cc(/C=C/C(=O)c2ccccc2CN2CCN(C)CC2)c(OC)cc1Cl [A083, (E)-3-[4-Chloro-5-(1,1-dimethyl-allyl)-2-methoxy-phenyl]-1-[2-(4-methyl-piperazin-1-ylmethyl)-phenyl]-propenone]","MIC, A: Staphylococcus aureus ATCC29213",[5],9.4 µM
same,"MIC, B: Staphylococcus aureus ATCC33591",[6],9.4 µM
same,"MIC, C: Staphylococcus intermedius #2357",[7],18.8 µM
same,"MIC, D: Enterococcus faecalis ATCC29212",[8],18.8 µM
same,"MIC, E: Enterococcus faecium #17501",[9],9.4 µM
same,"MIC, F: Streptococcus pneumoniae #998",[10],18.8 µM
same,"MIC, H: Eschericia coli ESS",Eschericia coli ESS,9.4 µM
same,activity against the ESS strain of E. coli,Eschericia coli ESS,considerable activity
same,potency against Gram-positive pathogens in comparison with Licochalcone A,[11],increased potency
"CCCN(CCC)c1ccc(/C=C/C(=O)c2ccccc2CN(C)C)c(OCC)c1 [A084, (E)-1-(2-Dimethylaminomethyl-phenyl)-3-(4-dipropylamino-2-ethoxy-phenyl)-propenone]",activity against the ESS strain of E. coli,Eschericia coli ESS,considerable activity
"COc1ccc(C(=O)/C=C/c2ccc(OC)c(CN(C)C)c2)cc1 [A086, (E)-3-(3-Dimethylaminomethyl-4-methoxy-phenyl)-1-(4-methoxy-phenyl)-propenone]",Solubility in aqueous buffer at pH 7.4,[1],8.9 mg/ml
"CN(C)Cc1ccccc1C(=O)/C=C/c1cccc(Nc2cccnc2)c1 [A090, (E)-1-(2-Dimethylaminomethyl-phenyl)-3-[3-(pyridin-3-ylamino)-phenyl]-propenone]",activity against anaerobic bacteria,[3],activity against all microorganisms within the test panel
"CNCc1cccc(/C=C/C(=O)c2ccc(OC)cc2)c1 [A099, (E)-1-(4-Methoxy-phenyl)-3-(3-methylaminomethyl-phenyl)-propenone]",Metabolic turn-over (rat) in vitro,[2],7%
"COc1ccc(Nc2cccnc2)cc1/C=C/C(=O)c1ccccc1CN(C)C [A102, (E)-1-(2-Dimethylaminomethyl-phenyl)-3-[2-methoxy-5-(pyridin-3-ylamino)-phenyl]-propenone]",Metabolic turn-over (rat) in vitro,[2],2%
same,"metabolism (turn-over), rat",[2]; rat,2%
"CCCCN(CCCC)c1ccc(/C=C/C(=O)c2ccc(OC)c(CN(C)C)c2)cc1 [A110, (E)-3-(4-Dibutylamino-phenyl)-1-(3-dimethylaminomethyl-4-methoxy-phenyl)-propenone]",Metabolic turn-over (rat) in vitro,[2],6%
"CCCCN(CCCC)c1cccc(/C=C/C(=O)c2ccc(OC)c(CN(C)C)c2)c1 [A129, (E)-3-(3-Dibutylamino-phenyl)-1-(3-dimethylaminomethyl-4-methoxy-phenyl)-propenone]","MIC, A: Staphylococcus aureus ATCC29213",[5],4.7 µM
same,"MIC, B: Staphylococcus aureus ATCC33591",[6],9.4 µM
same,"MIC, C: Staphylococcus intermedius #2357",[7],9.4 µM
same,"MIC, D: Enterococcus faecalis ATCC29212",[8],9.4 µM
same,"MIC, E: Enterococcus faecium #17501",[9],9.4 µM
same,"MIC, F: Streptococcus pneumoniae #998",[10],37.5 µM
same,"MIC, H: Eschericia coli ESS",Eschericia coli ESS,9.4 µM
"C=CC(C)(C)c1cc(/C=C/C(=O)c2cccc(CN(C)C)c2)c(OC)cc1O [A137, (E)-3-[5-(1,1-Dimethyl-allyl)-4-hydroxy-2-methoxy-phenyl]-1-(3-dimethylaminomethyl-phenyl)-propenone]","MIC, A: Staphylococcus aureus ATCC29213",[5],4.7 µM
same,"MIC, B: Staphylococcus aureus ATCC33591",[6],9.4 µM
same,"MIC, C: Staphylococcus intermedius #2357",[7],9.4 µM
same,"MIC, D: Enterococcus faecalis ATCC29212",[8],9.4 µM
same,"MIC, E: Enterococcus faecium #17501",[9],9.4 µM
same,"MIC, F: Streptococcus pneumoniae #998",[10],37.5 µM
